Usually MIC50 stands for the lowest concentration that inhibits either 50% of growth or 50% of the strains tested, depending on the study. A word on the IC50: it is the concentration needed to halve the response being measured. A higher IC50 goes with weaker potency. In general, melting point refers to the temperature of the solid-liquid transition.

SMILES strings stand for the structures. Converted amounts (≈) assume the structure as drawn.

In PMC9947975, “Design, Synthesis, and Biological Evaluation Studies of Novel Naphthalene-Chalcone Hybrids As Antimicrobial, Anticandidal, Anticancer, and VEGFR-2 Inhibitors” (ACS Omega, 2023) one finds MIC50, IC50 and melting point data, which are given here for 6 compounds.

One data set relates to S. aureus (ATCC 29213). Briefly: Antibacterial activity, MIC50 by resazurin fluorometric measurement. The format is cell-based, Staphylococcus aureus. The note with it: Staphylococcus aureus, ATCC29213, means of triplicate assays. As to the method: (§1) Obtained compounds (2a–2j) were evaluated for antibacterial activity against Escherichia coli (E. coli) (ATCC 25922), Pseudomonas aeruginosa (P. aeruginosa) (ATCC 27853), […] (E. faecalis) (ATCC 2942), Bacillus subtilis (B. subtilis) (ATCC 6051), Staphylococcus aureus (S. aureus) (ATCC 29213), and Staphylococcus epidermidis (S. epidermidis) (ATCC 12228). MIC50 values were determined via fluorometric measurements, using resazurin solution.[13] Azithromycin was used as a standard drug in the antibacterial activity test.
(§2) The antimicrobial activity of obtained derivatives (2a–2j) was screened on six bacterial and three fungal strains according to the standard procedure of CLSI[20] as described in the previous study.[21] The antibacterial activities of the obtained compounds were screened against B. subtilis (ATCC 6051), E. coli (ATCC 25922), E. faecalis (ATCC 2942), P. aeruginosa (ATCC 27853), S. aureus (ATCC 29213), and S. epidermidis (ATCC 12228). The obtained compounds were evaluated for anticandidal activity against C. albicans (ATCC 24433), C. krusei (ATCC 6258), and C. parapsilopsis (ATCC 22019). For antibacterial activity, azithromycin was utilized as a reference drug, whereas voriconazole and fluconazole were used for anticandidal activity.
On the technique in general: The colour change of resazurin is a common sign of viable cells or microbes.

In another data set the test system is C. krusei (ATCC 6258). Briefly: Anticandidal activity, MIC50 by resazurin fluorometric measurement. The format is cell-based, Candida krusei. The note with it: Pichia kudriavzevii, ATCC6258, means of triplicate assays. As to the method: (§3) Obtained compounds (2a–2j) were evaluated for anticandidal activity against Candida albicans (C. albicans) (ATCC 24433), Candida krusei (C. krusei) (ATCC 6258), and Candida parapsilopsis (C. parapsilopsis) (ATCC 22019). MIC50 values were determined via fluorometric measurements, using resazurin solution.[13] Voriconazole and fluconazole were used as a standard drug in the anticandidal activity test. […] In general, it is seen that the 2-methoxyethyl substituent increases the anticandidal activity.
as §2

In another data set the test system is C. albicans (ATCC 24433). Described as above. It counts as cell-based, Candida albicans. Conditions: Candida albicans, ATCC24433, means of triplicate assays. As for the experimental part: as §3, §2
The test system of data set [1] is healthy mouse fibroblast cell (NIH3T3). Briefly: MTT cytotoxicity test on healthy cells. The format is cell-based. The note with it: 24-h treatment, means of quartet assays ± SEM. As to the method:
(§4) The MTT test was performed using 3 different cell lines for calculated IC50 values of obtained compounds. […] For this purpose, the cytotoxic effects of the compounds against the healthy mouse fibroblast cell (NIH3T3) were investigated.
(§5) The 3-(4,5-dimethylthiazol-2-yl)-2,5-diphenyltetrazolium salt reduction method, or MTT assay, is used to measure the metabolic activity of live cells. […] Doxorubicin is used as a therapeutic drug. MTT assays were carried out as previously explained.[19]
Background: Tetrazolium dyes change colour on reduction, which living cells bring about.

Data set [2] deals with P. aeruginosa (ATCC 27853). Briefly: Antibacterial activity, MIC50 by resazurin fluorometric measurement. It counts as cell-based. The note with it: Pseudomonas aeruginosa, ATCC27853; means of triplicate assays. As for the experimental part: as §1, §2
The subject of the next data set is E. coli (ATCC 25922). Described as above. It counts as cell-based. The note with it: Escherichia coli, ATCC25922; means of triplicate assays. As to the method:
as §1, §2

For a further data set, the system named is B. subtilis (ATCC 6051). Described as above. It counts as cell-based. The note with it: Bacillus subtilis, ATCC6051; means of triplicate assays. As to the method:
as §1, §2

Another data set relates to A549 cell line. Briefly: MTT cytotoxicity test. The format is cell-based. Conditions: Homo sapiens, A549, 24 h, MTT, 24-h treatment, means of quartet assays ± SEM. As for the experimental part:
as §4, §5

A further data set concerns HepG2 cell line. Briefly: MTT cytotoxicity test. The note with it: Homo sapiens, 24-h treatment, means of quartet assays ± SEM. It counts as cell-based. As to the method: as §4, §5
Data set [3] deals with C. parapsilopsis (ATCC 22019). Briefly: Anticandidal activity, MIC50 by resazurin fluorometric measurement. The format is cell-based, Candida parapsilopsis. Conditions: Candida, ATCC22019; means of triplicate assays. As for the experimental part:
as §3, §2

The subject of data set [4] is S. epidermidis (ATCC 12228). The experiment in a line: Antibacterial activity, MIC50 by resazurin fluorometric measurement. Conditions: Staphylococcus epidermidis, ATCC12228, means of triplicate assays; read-out: MIC50 S. epidermis. The format is cell-based, Staphylococcus epidermidis. As for the experimental part:
as §1, §2

The next data set has as its system E. faecalis (ATCC 2942). The data set is described as above. It counts as cell-based, Enterococcus faecalis. Conditions: Enterococcus faecalis, ATCC2942, means of triplicate assays. As for the experimental part:
as §1, §2

Take `COCCN1CCN(c2ccc(C(=O)C=Cc3cccc4ccccc34)cc2)CC1` [2e, 1-(4-(4-(2-Methoxyethyl)piperazin-1-yl)phenyl)-3-(naphthalen-1-yl)prop-2-en-1-one]: the melting point was 136.2 to 137.8 °C. Besides, the MIC50 with S. aureus (ATCC 29213) was 62.5 µg/mL (≈ 156 µM). The MIC50 in the data set on C. krusei (ATCC 6258) worked out at 62.5 µg/mL (≈ 156 µM). This compound also registered an MIC50 against C. albicans (ATCC 24433) of 15.6 µg/mL (≈ 38.9 µM). In data set [1], the IC50 was 19.8 ± 0.81 µM. For the same compound, in [2], the MIC50 turned out to be 62.5 µg/mL (≈ 156 µM). For the same compound, the MIC50 in the data set with E. coli (ATCC 25922) was over 100 µg/mL. In the data set on B. subtilis (ATCC 6051), the MIC50 was over 100 µg/mL. The compound also registered an IC50 in the data set with A549 cell line of 20.6 ± 0.52 µM. The same compound came in with a half-inhibitory concentration (IC50) in the data set with HepG2 cell line of 45.5 ± 2.5 µM. The same compound had an MIC50 in data set [3] of over 100 µg/mL. For the same compound, the MIC50 in [4] worked out at 31.3 µg/mL (≈ 78.1 µM). The MIC50 in the data set with E. faecalis (ATCC 2942) stood at 31.3 µg/mL (≈ 78.1 µM).
`OC(Cn1cncn1)(Cn1cncn1)c1ccc(F)cc1F` [SD3, Fluconazole, reference compound]: the figures for the MIC50 (in the data set with C. krusei (ATCC 6258); against C. albicans (ATCC 24433); in [3]) were 7.81 µg/mL (≈ 25.5 µM), 7.81 µg/mL (≈ 25.5 µM) and 3.9 µg/mL (≈ 12.7 µM), respectively.
As to `CN1CCN(c2ccc(C(=O)C=Cc3ccc4ccccc4c3)cc2)CC1` [2f, 1-(4-(4-Methylpiperazin-1-yl)phenyl)-3-(naphthalen-2-yl)prop-2-en-1-one], the melting point lay in the range of 204.5 to 206.2 °C. This compound also registered an MIC50 in the data set on S. aureus (ATCC 29213) of 31.3 µg/mL (≈ 87.8 µM). In addition, the MIC50 in the data set with C. krusei (ATCC 6258) is over 100 µg/mL. The MIC50 in the data set on C. albicans (ATCC 24433) is 62.5 µg/mL (≈ 175 µM). Also, the half-inhibitory concentration (IC50) in data set [1] is 25.6 ± 0.26 µM. The compound further returned an MIC50 in data set [2] of over 100 µg/mL. The compound further registered an MIC50 with E. coli (ATCC 25922) of over 100 µg/mL. The MIC50 in the data set on B. subtilis (ATCC 6051) is over 100 µg/mL. Also, the midpoint of inhibition in the data set on A549 cell line, the IC50, lay at 35.7 ± 0.37 µM. The half-maximal inhibitory concentration (IC50) in the data set with HepG2 cell line was 29.7 ± 0.79 µM. For the same compound, the MIC50 in data set [3] was over 100 µg/mL. The MIC50 in [4] was found to be 15.6 µg/mL (≈ 43.8 µM). In the data set with E. faecalis (ATCC 2942), this compound returned an MIC50 of 31.3 µg/mL (≈ 87.8 µM).
The compound `C=CCN1CCN(c2ccc(C(=O)C=Cc3ccc4ccccc4c3)cc2)CC1` [2i, 1-(4-(4-Allylpiperazin-1-yl)phenyl)-3-(naphthalen-2-yl)prop-2-en-1-one] had a melting point of 186.9 to 188.8 °C. In the data set with S. aureus (ATCC 29213), the MIC50 was over 100 µg/mL. The MIC50 in the data set with C. krusei (ATCC 6258) was over 100 µg/mL. In addition, the MIC50 in the data set with C. albicans (ATCC 24433) is 31.3 µg/mL (≈ 81.8 µM). This compound also had an IC50 in [1] of over 100 µM. Besides, the MIC50 in data set [2] is over 100 µg/mL. This compound gave an MIC50 against E. coli (ATCC 25922) of over 100 µg/mL. This compound also gave an MIC50 with B. subtilis (ATCC 6051) of over 100 µg/mL. In the data set with A549 cell line, the IC50 turned out to be 21.4 ± 2.56 µM. This compound also came in with an IC50 in the data set with HepG2 cell line of 97.1 ± 4.94 µM. Besides, in data set [3], the MIC50 was over 100 µg/mL. The MIC50 in [4] was 31.3 µg/mL (≈ 81.8 µM). In addition, the MIC50 in the data set with E. faecalis (ATCC 2942) is 31.3 µg/mL (≈ 81.8 µM).
Take `CCN1CCN(c2ccc(C(=O)C=Cc3cccc4ccccc34)cc2)CC1` [2b, 1-(4-(4-Ethylpiperazin-1-yl)phenyl)-3-(naphthalen-1-yl)prop-2-en-1-one]: the melting point was 164.6 to 166.1 °C. Also, in the data set with S. aureus (ATCC 29213), the MIC50 was 31.3 µg/mL (≈ 84.5 µM). Besides, in the data set with C. krusei (ATCC 6258), the MIC50 was determined as 62.5 µg/mL (≈ 169 µM). The compound also came in with an MIC50 in the data set with C. albicans (ATCC 24433) of 15.6 µg/mL (≈ 42.1 µM). This compound returned an IC50 in data set [1] of 22.9 ± 0.76 µM. In data set [2], this compound showed an MIC50 of 62.5 µg/mL (≈ 169 µM). Besides, in the data set on E. coli (ATCC 25922), the MIC50 was over 100 µg/mL. Moreover, the MIC50 in the data set with B. subtilis (ATCC 6051) is over 100 µg/mL. Moreover, the half-maximal inhibitory concentration (IC50) with A549 cell line is over 100 µM. The compound further displayed a half-inhibitory concentration (IC50) in the data set on HepG2 cell line of 45.8 ± 8.4 µM. Also, the MIC50 in [3] was over 100 µg/mL. The MIC50 in data set [4] is 31.3 µg/mL (≈ 84.5 µM). For the same compound, in the data set on E. faecalis (ATCC 2942), the MIC50 worked out at 31.3 µg/mL (≈ 84.5 µM).
For the compound `C[C@@H](c1ncncc1F)[C@](O)(Cn1cncn1)c1ccc(F)cc1F` [SD2, Voriconazole, reference compound], the MIC50 was 3.9 µg/mL (≈ 11.2 µM) against C. krusei (ATCC 6258), 3.9 µg/mL (≈ 11.2 µM) in the data set on C. albicans (ATCC 24433) and 1.95 µg/mL (≈ 5.58 µM) in data set [3].
